Reference: ChEMBL document CHEMBL4665696, “Highly Modified Lanostane Triterpenes from the Wood-Rot Basidiomycete Ganoderma colossus: Comparative Chemical Investigations of Natural and Artificially Cultivated Fruiting Bodies and Mycelial Cultures” (J Nat Prod, 2020)
Converted amounts (≈) assume the structure as drawn.

Legend:
Plasmodium falciparum = assay: Antimalarial activity against Plasmodium falcipuram K1 by microculture radioistope technique; type: functional, organism-based
[1] = system: Mycobacterium tuberculosis; assay: Antitubercular activity against Mycobacterium tuberculosis H37Ra by green fluorescent protein microplate assay; type: functional
Vero = assay: Cytotoxicity against African green monkey Vero cells by green fluorescent protein-based assay; type: cell-based; conditions: Chlorocebus sabaeus

SMILES	IC50 (Plasmodium falciparum)	MIC [1]	IC50 (Vero)
CC(=O)OC[C@@]1(CCC(=O)O)C2=C(CC[C@H]1C(C)(C)O)[C@]1(C)CC[C@H]([C@H](C)[C@H](C/C=C(/C)C(=O)O)OC(C)=O)[C@@]1(C)CC2	> 10 mg/L	> 50 mg/L	> 50 mg/L
CC(=O)OC[C@]12CCC(=O)OC(C)(C)[C@@H]1CCC1=C2CC[C@]2(C)[C@@H]([C@H](C)[C@H](C/C=C(/C)C(=O)O)OC(C)=O)CC[C@@]12C	> 10 mg/L	> 50 mg/L	> 50 mg/L
CC(=O)OC[C@@]1(CCC(=O)O)C2=C(CC[C@H]1C(C)(C)O)[C@]1(C)CC[C@H]([C@H](C)[C@H]3OC(=O)C(C)=C[C@@H]3O)[C@@]1(C)CC2	5 mg/L (≈ 8.92 µM)	> 50 mg/L	> 50 mg/L
CC1=CC[C@@H]([C@@H](C)[C@H]2CC[C@@]3(C)C4=C(CC[C@]23C)[C@]23CC[C@H](OC2=O)C(C)(C)[C@@H]3CC4)OC1=O	> 10 mg/L	> 50 mg/L	> 50 mg/L
CC1=CC[C@@H]([C@@H](C)[C@H]2CC[C@@]3(C)C4=C(CC[C@]23C)[C@@]2(C)CCC(=O)C(C)(C)[C@@H]2CC4)OC1=O	3.6 mg/L (≈ 7.95 µM)	> 50 mg/L	> 50 mg/L
CC(=O)OC[C@@]1(CCC(=O)O)C2=C(CC[C@H]1C(C)(C)O)[C@]1(C)CC[C@H]([C@H](C)[C@@H]3CC=C(C)C(=O)O3)[C@@]1(C)CC2	8.2 mg/L (≈ 15.1 µM)	25 mg/L (≈ 45.9 µM)	> 50 mg/L
CC(=O)OC[C@]12CC[C@H](O)C(C)(C)[C@@H]1CCC1=C2CC[C@]2(C)[C@@H]([C@H](C)[C@H](C/C=C(/C)C(=O)O)OC(C)=O)CC[C@@]12C	> 10 mg/L	> 50 mg/L	> 50 mg/L
C[C@H]1[C@@H](O)O[C@@H]2O[C@@]3(C)CC[C@H]4[C@H](C)CC[C@@H]1[C@@]24OO3 [ARTENIMOL]	> 10 mg/L		
CC(=O)O[C@@H](C/C=C(/C)C(=O)O)[C@@H](C)[C@H]1CC[C@@]2(C)C3=CC[C@@H](C(C)(C)OC(C)=O)[C@]4(CCC(=O)OC4)C3=CC[C@]12C	5.8 mg/L (≈ 9.92 µM)	> 50 mg/L	> 50 mg/L
CC(=O)OC[C@@]1(CCC(=O)O)C2=CC[C@]3(C)[C@@H]([C@H](C)[C@H](C/C=C(/C)C(=O)O)OC(C)=O)CC[C@@]3(C)C2=CC[C@H]1C(C)(C)O	1.4 mg/L (≈ 2.32 µM)	> 50 mg/L	> 50 mg/L
CC(=O)OC[C@]12CCC(=O)OC(C)(C)[C@@H]1CC=C1C2=CC[C@]2(C)[C@@H]([C@H](C)[C@H](C/C=C(/C)C(=O)O)OC(C)=O)CC[C@@]12C	> 10 mg/L	> 50 mg/L	> 50 mg/L
NNC(=O)c1ccncc1 [ISONIAZID]		0.047 mg/L (≈ 0.343 µM)	
CC(=O)O[C@@H](C/C=C(/C)C(=O)O)[C@@H](C)[C@H]1CC[C@@]2(C)C3=C(C=C4C=CC(=O)OC(C)(C)[C@@H]4CC3)CC[C@]12C	0.03 mg/L (≈ 0.0572 µM)	> 50 mg/L	49.2 mg/L (≈ 93.8 µM)
Cc1c2ccncc2c(C)c2c1[nH]c1ccccc12 [ELLIPTECINE]			0.87 mg/L (≈ 3.53 µM)
Cl.O[C@@H](c1cc(C(F)(F)F)nc2c(C(F)(F)F)cccc12)[C@H]1CCCCN1	> 10 mg/L		
CC(=O)O[C@@H]1C[C@H]([C@H](C)[C@@H]2CC=C(C)C(=O)O2)[C@@]2(C)CCC3=C(CC[C@H]4C(C)(C)OC(=O)C=C[C@]45C[C@H]35)[C@]12C	0.001 mg/L (≈ 0.00186 µM)	25 mg/L (≈ 46.6 µM)	8.5 mg/L (≈ 15.8 µM)
